Laboratory results: patent US20250243172A1, “NLRP3 INFLAMMASOME INHIBITORS AND COMPOSITIONS AND USES THEREOF” (VIRGINIA COMMONWEALTH UNIVERSITY, priority 2022, published 2025)

Biological target: human recombinant NLRP3 protein
Assay: Binding of NSIs to recombinant NLRP3 protein by microscale thermophoresis (Monolith NT.Automated)
Settings: MST; His-NLRP3 labeled with RED-tris-NTA dye, 40 min incubation in PBS-T; duplicate reads
Procedure: Monolith NT. Automated instrument was used to measure the Kd value. A range of concentrations of NSIs were incubated and His-NLRP3 pre-labeled with RED-tris-NTA dye kit (SKU: MO-L018) for 40 min in PBS-T assay buffer (1×PBS with 0.05% Tween® 20). The samples were loaded into NanoTemper® glass capillaries and series of ligand-induced changes in thermophoresis curves were gained using an Excitation power of 80% and a MST power of high. Kd values were calculated using the mass action equation with NanoTemper software from duplicate reads of an experiment.
Table 1 provides exemplary binding affinities of NSIs to human recombinant NLRP3 protein.

Kd	Compound
3000 nM	COc1ccc(Cl)cc1Cn1cc(-c2ccc(C(=O)N3CCC3)cc2)nn1 [YM-III-11]
980 nM	COc1ccc(Cl)cc1Cn1cc(C(=O)N2CC(F)(F)C2)nn1 [YM-III-12]
